Reference: US20220380430A1, “Non-Transgenic Functional Rescue of Neuropeptides” (Worcester Polytechnic Institute, priority 2021, published 2022)
No end group written: not given here.

How the values were obtained:
flp-3 lof males = test: Drop avoidance assay to ascr #8 after FLP-3 peptide rescue-by-feeding; type: in vivo, C. elegans; conditions: flp-3 lof males raised on peptide; 1 μM ascr #8; in words
Protocol: To identify which FLP-3 peptides are required for male avoidance of ascr #8, a peptide feeding approach https://www.nature.com/articles/s42003-021-02547-7-ref-CR59 was adopted, similar to RNAi feeding (FIG. 16A). Using Gateway Cloning technology, FLP-3 peptide coding sequences were inserted into a bacterial expression vector. As a control, first the FLP-3 peptides were tested that are still encoded in the ok3625 allele which are insufficient to drive the proper ascr #8 response in vivo: FLP-3-1 (SPLGTMRFamide) (SEQ ID NO: 10) and FLP-3-4 (NPLGTMRFamide) (SEQ ID NO: 11). Then flp-3 lof animals were reared on lawns of bacteria expressing the rescue constructs, and their progeny were assayed for avoidance (FIG. 16B-FIG. 16D).
Assays were performed as described previously in Chute, C. D. & Srinivasan, J. Semin. Cell Dev. Biol. 33, 18-24 (2014); Chute, C. D. et al. Nat. Commun. 10, 3186 (2019); and Hilliard, M. A. et al., EMBO J. 23, 1101-1111 (2004). Fifty to sixty L4 worms were segregated by sex and stored at 20° C. for 5 h to overnight to be assayed as young adults. One to four hours prior to the assay, the lids of unseeded plates were tilted to allow any excess moisture to evaporate off the plates. At the time of the assay, 10 or more animals were transferred onto each of the dried, unseeded plates. A drop of either water or 1 μM ascr #8 was placed on the tail of forward moving animals, and their response was scored as either an avoidance response, or no response. The total number of avoidances was divided by the total number of drops to generate an avoidance index for that plate. This was repeated for at least 10 plates over at least three different days.
SCRAMBLE control or FLP-3 peptide constructs were grown overnight in LB media containing […] ampicillin at 37° C. and diluted to an OD600 of 1.0 prior to seeding on NGM plates containing […] ampicillin and 1 mM IPTG. The 75 μL lawn was left to dry and grow overnight at room temperature before three L4 animals were placed on the plates. Males were selected for testing in the same manner as described above but were isolated onto plates also seeded with the same peptide on which they had been reared. Animals were then assayed using either the avoidance assay or single worm assay.

him-5 and pdf-1 males = test: Excursion (food-leaving) assay after rescue-by-feeding; type: in vivo, C. elegans; conditions: Probability of Leaving per hour, beyond 35 mm from food
Description: We quantified the behavioral activity of pdf-1 lof males using a food-leaving behavior as previously described. Individuals were placed on a small food spot, and track patterns were scored at three different time points (2, 6, 24 hrs) (FIG. 4A). “Never left food” indicate the absence of tracks outside the food spot. […] “Major excursion” indicates the presence of tracks past the 1 cm boundary (FIG. 1B, Excursion Assay). The food-leaving behavior was quantified as a measure of mate-searching behavior. In this behavior well-fed males left food in search of mates and the data is represented as a Probability of Leaving (PL) (FIG. 7A).
The mate searching behavior of pdf-1 mutants was quantified in a food leaving assay. him-5 animals were used as wild-type control to ensure the presence of males. him-5 and pdf-1 animals were fed OP50, scramble peptide, PDF-1A, PDF-1B, or a 1:1 mixture of PDF-1A and PDF-1B cultures. Four to six larval L4 hermaphrodites were passed onto an NGM plate containing […] AMP and 1 mM IPTG with 75 μL of peptide. These worms were grown at 20° C. for about 4 days until the male progeny of the initial L4 worms were young adults. The day prior to the assay, young adult male pdf-1 or him-5 worms were singled onto 60 mm plates containing lawns of either OP50 (NGM plates) or appropriate peptide cultures (NGM containing […] AMP and 1 mM IPTG). To determine the mate searching effects of pdf-1, we performed a food-leaving assay as described previously in Barrios, A., et al., Nat Neurosci 15, 1675-1682 (2012); Lipton, J., et al., The Journal of neuroscience: the official journal of the Society for Neuroscience 24, 7427-7434 (2004); Ryan, D. A. et al. Curr Biol 24, 2509-2517 (2014), with modifications. In this assay, individuals were placed on a small food spot, and track patterns were scored at the indicated times. Assay plates were prepared one day prior to assaying on 100 mm plates with 10 mL of Leaving Assay media (25 mM KPO4 (pH 6.0), 1 mM MgSO4, 1 mM CaCl2), 50 mM NaCl, 2.5 g/L Peptone, 17 g/L Agar). On center of plate, 7 μL of OP50 was added. Plates were lightly covered and stored at room temperature overnight (˜20° C., <40% humidity).
On the day of the assay, a single male was plated on the assay plate and placed in a dark, 20° C. incubator. At 2, 6, and 24 hours after the worms are plated, plates were scored for male worm tracks. Scored were separated into binned ranges. “Never left food” indicates the absence of tracks outside the food spot. […] “Major excursion” indicates the presence of tracks past the 1 cm boundary. The food leaving behavior was quantified at three different time points (2, 6, and 24 hours). (FIG. 4A, FIG. 7A, Table IV).
The mate searching defect of pdf-1 was quantified as a Probability of Leaving per hour (PL) (FIG. 4B, FIG. 7B).
The assay was performed across at least two days per condition, with at least n=50, wherein each assay plate with one male is equal to n=1. In all experiments, the investigators were blinded to genotype. Worm in the >35 mm from the center of food bin were scored as “leavers”. The probability of leaving per hour (Probability of Leaving (PL)) was calculated using an R script developed in Barrios et al., with assistance by (Personal Communications to Barrios, 2020). PL was calculated by the “hazard obtained by fitting an exponential parametric survival model to the censored data using maximum likelihood” (Table IV). The PLh-1 values for all pdf-1 animals fed scramble or peptide rescue were compared to him-5 worms fed scramble using an ANOVA followed by Bonferroni's multiple comparison (FIG. 4B, FIG. 7C).

Substance: NSKLHRGGGRSRTSGSTGSMASHARGSPGLQ-NH2 [SCRAMBLE, scramble control peptide expressed in E. coli DH5α, negative control, reference compound]
- rescue of avoidance phenotype to ascr #8 (Avoidance Index) (flp-3 lof males): does not affect behavior
- PL (confidence interval) (him-5 and pdf-1 males; him-5 males): 0.07727 (0.06532, 0.09141)
- PL (confidence interval) (him-5 and pdf-1 males; pdf-1 males): 0.03538 (0.02747, 0.04556)
